Measured values: patent publication EP1996603B1, “LIPID A ANTAGONISTS WITH ANTI-SEPTIC SHOCK, ANTI-INFLAMMATORY, ANTI-ISCHEMIA AND ANALGESIC ACTIVITY” (Università Degli Studi Di Milano - Bicocca, priority 2006, dated 2007)

Key:
BMΦ, BMDC and D1 cells = assay: Lipid A-induced TNFα production in macrophages and dendritic cells (ELISA); format: cell-based, Mouse; conditions: for direct inflammatory function (stimulating cytokines production): cells treated with compound alone, without lipid A
Description: BMΦ and DC were derived from bone marrow cells and divided in two separate cultures. For DC preparation bone marrow cells were cultured in complete IMDM supplemented with 10% supernatant of GM-CSF-transduced B16 tumor cells [R. Soiffer, T. Lynch, M. Mihm, K. Jung, C. Rhuda, J. C. Schmollinger, F. S. Hodi, L. Liebster, P. Lam, S. Mentzer, S. Singer, K. K. Tanabe, A. B. Cosimi, R. Duda, A. Sober, A. Bhan, J. Daley, D. Neuberg, G. Parry, J. Rokovich, L. Richards, J. Drayer, A. Berns, S. Clift, L. K. Cohen, R. C. Mulligan, G. Dranoff, Proc. Natl. Acad. Sci. U S A. 1998, 95(22), 13141-13146]. Fresh medium was added every 2 d. After 7-10 d of culture, cells were analyzed for CD11c expression and used in assays when 90% were CD11c positive. For BMΦ preparation bone marrow cells were cultured in complete IMDM supplemented with 10% supernatant of M-CSF-transduced NIH3T3 cells. Also in this case, fresh medium was added every 2 d. After 7-10 d of culture, cells were analyzed for Mac1 expression and used in assays when at least 90% were Mac1 positive. D1 cells were cultured in complete IMDM supplemented with 10% supernatant of GM-CSF-transduced B16 tumor cells.
D1 cells, BMDC and MΦ were plated in 48 well plates at a concentration of 200000 cells/well in 200µL of medium. One or two hours after plating they were treated with different amounts of compounds Ic and Id for 30 min and then stimulated with Lipid A from Escherichia coli (F583, Rd mutant Sigma, 0.5µM) for 18 h.
Given the pivotal role of early-activated DC and MΦ in directing inflammatory reactions, compounds Ia, Ic and Id were tested for their ability to antagonize the stimulatory activity of lipid A on bone marrow derived macrophages (BMΦ) and DC (BMDC) by interfering with their capacity to induce TNFα production. As source of DC, D1 cells, a long term growth factor (GM-CSF)-dependent DC line [C. Winzler et al. J. Exp. Med. 1997, 185, 317-327] were also used. BMΦ, BMDC and D1 cells were stimulated with lipid A (0.5 µM) after a pre-exposure to compounds Ia, Ic and Id and the amount of TNFα released in the supernatant was measured by ELISA.

Chemical stability = format: physicochemical; conditions: N,O acetal group at C6 in Ia
Description: Reagents and conditions: a) ADMA, CSA, DMF, 94%; b) C14H29Br, NaH, DMF, 74%; c) LiAlH4, AlCl3, CH2Cl2/Et2O, 86%; d) Dess- Martin periodinane, CH2Cl2; e) cyclopentylamine, NaBH3CN, AcOH, CH2Cl2, MeOH, 75% over two steps; f) TFA, CH2Cl2, 80%;g) CH3I, Na2CO3, DMF, 94%; h) O-methylhydroxylamine hydrochloride, pyridine, 65% from 6, i) NaBH3CN, glacial AcOH, 92%; l) TFA, CH2Cl2, 90%, m) DHF, PPTS, CH2Cl2, 65%; n) bromocyclopentane, DIPEA.

SMILES | direct inflammatory function (stimulating cytokines production) (BMΦ, BMDC and D1 cells) | chemical stability (Chemical stability) | relative potency as inhibitor of lipid A (BMΦ, BMDC and D1 cells; comparison between compounds Ia, Ic and Id) | TNFα production (BMΦ, BMDC and D1 cells; stimulation with lipid A (0.5 µM) after pre-exposure to compound, TNFα released in the supernatant measured by ELISA, BMΦ, BMDC and D1 cells)
CCCCCCCCCCCCCCO[C@H]1[C@@H](OC)O[C@H](CN(OC)C2CCCO2)[C@@H](O)[C@@H]1OCCCCCCCCCCCCCC (stereo partly drawn) [Compound Ia, methyl 6-deoxy-6-[N-(1'-tetrahydrofuranyl)-N'-methoxyamino)-2,3-di-O-tetradecyl-α-D-glucopyranoside] | did not show any direct inflammatory function | chemically unstable |  | 
CCCCCCCCCCCCCCO[C@H]1[C@@H](OC)O[C@H](CN(OC)C2CCCC2)[C@@H](O)[C@@H]1OCCCCCCCCCCCCCC [Ib, methyl 6-deoxy-6-[N-(cyclopentyl)-N'-methoxyamino)-2,3-di-O-tetradecyl-α-D-glucopyranoside] |  | more stable than compound (Ia) |  | 
CCCCCCCCCCCCCCO[C@H]1[C@@H](OC)O[C@H](CNC2CCCC2)[C@@H](O)[C@@H]1OCCCCCCCCCCCCCC [Ic, methyl 6-deoxy-6-cyclopentylamino-2,3-di-O-tetradecyl-α-D-glucopyranoside] | did not show any direct inflammatory function |  | a better inhibitor than Ia | interfered with lipid A's action in a dose-dependent manner
